Measurements reported in patent publication US7608619B2, “Substituted oxazole compounds with analgesic activity” (Gruenenthal GmbH, priority 2005, dated 2009).

Molecular target: T1, human μ-opiate receptor (Homo sapiens, UniProt P35372)
T1 construct: purchased Nen company, Zaventem, Belgium RB-HOM; host or cells: CHO-K1 cells (membrane preparation)
Test: Affinity for the human μ-opiate receptor ([3H]-naloxone displacement, SPA, CHO-K1 membrane preparation)
Conditions: test substance 1 μmole/l, displacement of 1 nmole/l [3H]-naloxone, percentage inhibition of the specific binding; for inhibition at 1 µM: read-out: μ-opioid receptor, % inhibition [1 μM]
Procedure: Method for Determining the Affinity for the Human μ-Opiate Receptor
The receptor affinity for the human μ-opiate receptor is determined in a homogeneous batch in microtiter plates. For this purpose dilution series of the substances to be tested are incubated for 90 minutes at room temperature with a receptor membrane preparation (15-40 μg protein/250 μl incubation batch) of CHO-K1 cells, which express the human μ-opiate receptor (RB-HOM receptor membrane preparation from the Nen company, Zaventem, Belgium), in the presence of 1 nmole/l of the radioactive ligand [^3H]-naloxone (NET719, Nen company, Zaventem, Belgium) and 1 mg WGA-SPA beads (wheat germ agglutinin SPA beads from Amersham/Pharmacia, Freiburg, Germany) in a total volume of 250 μl. 50 mmole/l of Tris-HCl supplemented with 0.05% sodium azide and with 0.06% bovine serum albumin is used as incubation buffer. In order to determine the non-specific binding, 25 μmole/l of naloxone is additionally added. After the end of the 90 minutes' incubation time the microtiter plates are centrifuged for 20 minutes at 1000 g and the radioactivity is measured in a beta counter (Microbeta-Trilux, PerkinElmer Wallac, Freiburg, Germany). The percentage displacement of the radioactive ligand from its binding to the human μ-opiate receptor at a concentration of the test substances of 1 μmole/l is determined and is given as percentage inhibition of the specific binding.

T1 sequence (P35372 whole entry): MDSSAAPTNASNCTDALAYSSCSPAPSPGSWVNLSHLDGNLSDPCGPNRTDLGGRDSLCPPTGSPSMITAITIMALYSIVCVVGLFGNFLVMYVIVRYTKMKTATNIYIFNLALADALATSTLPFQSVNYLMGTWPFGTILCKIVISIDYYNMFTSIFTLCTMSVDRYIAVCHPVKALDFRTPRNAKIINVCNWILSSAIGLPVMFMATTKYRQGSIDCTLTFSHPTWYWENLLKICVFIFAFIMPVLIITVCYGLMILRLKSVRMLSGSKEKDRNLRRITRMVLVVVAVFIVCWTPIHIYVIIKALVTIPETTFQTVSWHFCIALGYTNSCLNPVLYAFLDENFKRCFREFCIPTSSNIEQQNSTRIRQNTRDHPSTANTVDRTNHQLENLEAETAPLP

Row | Compound | inhibition at 1 µM [%] | μ-opioid receptor, % inhibition [1 μM] [%]
1 | CN(C)C(c1cccc(F)c1)C1CCC(C(c2nc(Cc3ccccc3)c(N3CCCC3)o2)N2CCOCC2)CC1 (stereo not shown) [compound 120, [{4-[(4-benzyl-5-pyrrolidin-1-yl-oxazol-2-yl)-morpholin-4-yl-methyl]-cyclohexyl}-(3-fluorophenyl)-methyl]-dimethylamine] | 75 | –
2 | CN(C)C(c1ccc(Cl)cc1)C1CCC(C(c2nc(Cc3ccccc3)c(N3CCCC3)o2)N2CCN(c3ccc(F)cc3)CC2)CC1 (stereo not shown) [compound 133, [(4-{(4-benzyl-5-pyrrolidin-1-yl-oxazol-2-yl)-[4-(4-fluorophenyl)-piperazin-1-yl]-methyl}-cyclohexyl)-(4-chlorophenyl)-methyl]-dimethylamine] | 64 | –
3 | CN(C)C(c1cccs1)C1CCC(C(c2nc(Cc3ccccc3)c(N3CCOCC3)o2)N2CCOCC2)CC1 (stereo not shown) [compound 139, ({4-[(4-benzyl-5-morpholin-4-yl-oxazol-2-yl)-morpholin-4-yl-methyl]-cyclohexyl}-thiophen-2-yl-methyl)-dimethylamine] | 72 | –
4 | CCN(CC)c1oc(C(C2CCC(C(c3ccc(Cl)cc3)N(C)C)CC2)N2CCCCC2)nc1Cc1ccccc1 (stereo not shown) [compound 39, [4-benzyl-2-({4-[(4-chlorophenyl)-dimethylaminomethyl]-cyclohexyl}-piperidin-1-yl-methyl)-oxazol-5-yl]-diethylamine] | 75 | –
5 | CN(CCc1ccccc1)c1oc(C(C2CCC(C(c3ccc(Cl)cc3)N(C)C)CC2)N(C)c2ccccc2)nc1Cc1ccccc1 (stereo not shown) [compound 43, {4-benzyl-2-[{4-[(4-chlorophenyl)-dimethylaminomethyl]-cyclohexyl}-(methylphenylamine)-methyl]-oxazol-5-yl}-methylphenethylamine] | – | 72
6 | CC1CC(C)CN(c2oc(C(C3CCC(C(c4ccc(Cl)cc4)N(C)C)CC3)N(C)c3ccccc3)nc2Cc2ccccc2)C1 (stereo not shown) [compound 42, ([4-benzyl-5-(3,5-dimethylpiperidin-1-yl)-oxazol-2-yl]-{4-[(4-chlorophenyl)-dimethylaminomethyl]-cyclohexyl}-methyl)-methylphenylamine] | 79 | –
7 | CN(C)C(c1cccs1)C1CCC(CC(c2nc(Cc3ccccc3)c(N3CCN(c4ccccc4)CC3)o2)N2CCCCC2)CC1 (stereo not shown) [compound 76, [(4-{2-[4-benzyl-5-(4-phenyl-piperazin-1-yl)-oxazol-2-yl]-2-piperidin-1-yl-ethyl}-cyclohexyl)-thiophen-2-yl-methyl]-dimethylamine] | 94 | –
8 | CN(CCc1ccccc1)c1oc(C(CC2CCC(C(c3ccc(F)cc3)N(C)C)CC2)N2CCCCC2)nc1Cc1ccccc1 (stereo not shown) [compound 95, [4-benzyl-2-(2-{4-[dimethylamino-(4-fluorophenyl)-methyl]-cyclohexyl}-1-piperidin-1-yl-ethyl)-oxazol-5-yl]-methylphenethylamine] | 65 | –
9 | COc1ccc(N2CCN(c3oc(C(CC4CCC(C(c5cccs5)N(C)C)CC4)N4CCN(c5ccc(F)cc5)CC4)nc3Cc3ccccc3)CC2)cc1 (stereo not shown) [compound 162, [(4-{2-{4-benzyl-5-[4-(4-methoxy-phenyl)-piperazin-1-yl]-oxazol-2-yl}-2-[4-(4-fluorophenyl)-piperazin-1-yl]-ethyl}-cyclohexyl)-thiophen-2-yl-methyl]-dimethylamine] | 96 | –
10 | COc1ccc(N2CCN(C(c3nc(Cc4ccccc4)c(N4CC(C)OC(C)C4)o3)C3CCC(C(c4cccs4)N(C)C)CC3)CC2)cc1 (stereo not shown) [compound 145, [(4-{[4-benzyl-5-(2,6-dimethylmorpholin-4-yl)-oxazol-2-yl]-[4-(4-methoxy-phenyl)-piperazin-1-yl]-methyl}-cyclohexyl)-thiophen-2-yl-methyl]-dimethylamine] | 69 | –
11 | CCN(CC)C(CC1CCC(C(c2cccs2)N(C)C)CC1)c1nc(Cc2ccccc2)c(N2CCSCC2)o1 (stereo not shown) [compound 115, {1-(4-benzyl-5-thiomorpholin-4-yl-oxazol-2-yl)-2-[4-(dimethylamino-thiophen-2-yl-methyl)-cyclohexyl]-ethyl}-diethylamine] | 93 | –
12 | COc1ccc(N2CCN(c3oc(C(CC4CCC(C(c5cccc(F)c5)N(C)C)CC4)N4CCOCC4)nc3Cc3ccccc3)CC2)cc1 (stereo not shown) [compound 151, [[4-(2-{4-benzyl-5-[4-(4-methoxyphenyl)-piperazin-1-yl]-oxazol-2-yl}-2-morpholin-4-yl-ethyl)-cyclohexyl]-(3-fluorophenyl)-methyl]-dimethylamine] | 89 | –
13 | CCN(CC)C(c1nc(Cc2ccccc2)c(N2CCC(Cc3ccccc3)CC2)o1)C1CCC(C(c2cccs2)N(C)C)CC1 (stereo not shown) [compound 27, {[4-benzyl-5-(4-benzyl-piperidin-1-yl)-oxazol-2-yl]-[4-(dimethylamino-thiophen-2-yl-methyl)-cyclohexyl]-methyl}-diethylamine] | 78 | –
14 | CC1CCCN(c2oc(C(CC3CCC(C(c4cccs4)N(C)C)CC3)N(C)c3ccccc3)nc2Cc2ccccc2)C1 (stereo not shown) [compound 117, {1-[4-benzyl-5-(3-methylpiperidin-1-yl)-oxazol-2-yl]-2-[4-(dimethylamino-thiophen-2-yl-methyl)-cyclohexyl]-ethyl}-methylphenylamine] | 99 | –
15 | CCN(CC)C(CC1CCC(C(c2cccs2)N(C)C)CC1)c1nc(Cc2ccccc2)c(N2CC(C)CC(C)C2)o1 (stereo not shown) [compound 112, {1-[4-benzyl-5-(3,5-dimethylpiperidin-1-yl)-oxazol-2-yl]-2-[4-(dimethylamino-thiophen-2-yl-methyl)-cyclohexyl]-ethyl}-diethylamine] | 89 | –
16 | CN(C)C(c1ccc(Cl)cc1)C1CCC(CC(c2nc(Cc3ccccc3)c(N3CCC(Cc4ccccc4)CC3)o2)N2CCN(Cc3ccccc3)CC2)CC1 (stereo not shown) [compound 62, [{4-[2-[4-benzyl-5-(4-benzyl-piperidin-1-yl)-oxazol-2-yl]-2-(4-benzyl-piperazin-1-yl)-ethyl]-cyclohexyl}-(4-chlorophenyl)-methyl]-dimethylamine] | 87 | –
17 | CN(CCc1ccccc1)c1oc(C(CC2CCC(C(c3ccc(Cl)cc3)N(C)C)CC2)N2CCN(Cc3ccccc3)CC2)nc1Cc1ccccc1 (stereo not shown) [compound 93, [4-Benzyl-2-(1-(4-benzylpiperazin-1-yl)-2-{4-[(4-chlorophenyl)-dimethylaminomethyl]-cyclohexyl}-ethyl)-oxazol-5-yl]-methylphenethyl-amine] | 66 | –
18 | COc1ccc(N2CCN(c3oc(C(CC4CCC(C(c5cccs5)N(C)C)CC4)N4CCN(c5ccc(OC)cc5)CC4)nc3Cc3ccccc3)CC2)cc1 (stereo not shown) [compound 164, [(4-{2-{4-benzyl-5-[4-(4-methoxyphenyl)-piperazin-1-yl]-oxazol-2-yl}-2-[4-(4-methoxyphenyl)-piperazin-1-yl]-ethyl}-cyclohexyl)-thiophen-2-yl-methyl]-dimethylamine] | 93 | –
19 | CCN(CC)C(CC1CCC(C(c2ccc(Cl)cc2)N(C)C)CC1)c1nc(Cc2ccccc2)c(N2CCSCC2)o1 (stereo not shown) [compound 91, (1-(4-benzyl-5-thiomorpholin-4-yl-oxazol-2-yl)-2-{4-[(4-chlorophenyl)-dimethylaminomethyl]-cyclohexyl}-ethyl)-diethylamine] | 75 | –
20 | CCN(CC)C(c1nc(Cc2ccccc2)c(N(C)CCc2ccccc2)o1)C1CCC(C(c2ccc(F)cc2)N(C)C)CC1 (stereo not shown) [compound 34, [4-benzyl-2-(diethylamino-{4-[dimethylamino-(4-fluorophenyl)-methyl]-cyclohexyl}-methyl)-oxazol-5-yl]-methylphenethylamine] | 84 | –
21 | CN(C)C(c1cccs1)C1CCC(CC(c2nc(Cc3ccccc3)c(N3CCSCC3)o2)N2CCCCC2)CC1 (stereo not shown) [compound 110, ({4-[2-(4-benzyl-5-thiomorpholin-4-yl-oxazol-2-yl)-2-piperidin-1-yl-ethyl]-cyclohexyl}-thiophen-2-yl-methyl)-dimethylamine] | 97 | –
22 | CC1CCN(c2oc(C(C3CCC(C(c4cccs4)N(C)C)CC3)N3CCCCC3)nc2Cc2ccccc2)CC1 (stereo not shown) [compound 24, [(4-{[4-benzyl-5-(4-methylpiperidin-1-yl)-oxazol-2-yl]-piperidin-1-yl-methyl}-cyclohexyl)-thiophen-2-yl-methyl]-dimethylamine] | 70 | –
23 | CCN(CC)C(CC1CCC(C(c2ccc(Cl)cc2)N(C)C)CC1)c1nc(Cc2ccccc2)c(N2CCC(C)CC2)o1 (stereo not shown) [compound 60, (1-[4-benzyl-5-(4-methylpiperidin-1-yl)-oxazol-2-yl]-2-{4-[(4-chlorophenyl)-dimethylaminomethyl]-cyclohexyl}-ethyl)-diethylamine] | 68 | –
24 | CN(C)C(c1ccc(Cl)cc1)C1CCC(C(c2nc(Cc3ccccc3)c(N3CCOCC3)o2)N2CCOCC2)CC1 (stereo not shown) [compound 130, [{4-[(4-benzyl-5-morpholin-4-yl-oxazol-2-yl)-morpholin-4-yl-methyl]-cyclohexyl}-(4-chlorophenyl)-methyl]-dimethylamine] | 77 | –
25 | CC1CCN(c2oc(C(CC3CCC(C(c4cccs4)N(C)C)CC3)N3CCCCC3)nc2Cc2ccccc2)CC1 (stereo not shown) [compound 74, [(4-{2-[4-benzyl-5-(4-methylpiperidin-1-yl)-oxazol-2-yl]-2-piperidin-1-yl-ethyl}-cyclohexyl)-thiophen-2-yl-methyl]-dimethylamine] | 79 | –
